# Like-named read-outs stand apart in the source and are kept apart here.
# Tests used:
# [1] = tested on: Listeria innocua (ATCC 33090); format: cell-based
# [2] = tested on: Listeria innocua (ATCC 33090); conditions: 25 g food matrix, 100 mL Demi Fraser media, inoculation 1.4 cfu/sample, 35° C. 24 hours, mean of two replicates
# Method: (§1) Individual inoculums were prepared by serially diluting each culture sample with Butterfield's Buffer (3M Company, St. Paul, Minn.). To determine the cell concentration (cfu/sample), a 1 mL aliquot of diluted sample was plated onto a […] Aerobic Count Plate (3M Company, St. Paul, Minn.), incubated, and counted according to the manufacturer's instructions. The counts (cfu) from the plates were used to calculate the final dilution required to achieve the targeted inoculum concentration.
# (§2) The inoculated sample was added to a WHIRL-PAK sterile sampling bag that contained 100 mL of Demi Fraser enrichment media. […] The bag was closed and the sample was mixed for 30 seconds followed by incubation at 35° C. for 24 hours. A 10 mL aliquot of the media was removed and serially diluted with fresh Demi Fraser media. A 100 microliter sample from the final dilution was plated onto a Modified Oxford (MOX) agar plate according to the manufacturer's instructions and the plate was incubated at 37° C. for 24 hours. Colonies (cfu) that formed were counted by visual inspection. The total colony count post enrichment was calculated by adjusting the observed plate count based on the number and volume of the dilutions.
# [3] = tested on: Salmonella typhimurium (ATCC 14028); conditions: 25 g food matrix, 100 mL BPW media, inoculation 10 cfu/sample, 35° C. 24 hours, mean of two replicates
# Method: as §1
# as §2, with “of Buffered Peptone Water” for “of Demi Fraser”, “with” for “with fresh”, “Fraser media (3M Company, St. Paul, Minn.).” for “Fraser media.”, “onto an EZ-CHROM Salmonella Plus” for “onto a Modified Oxford (MOX)”, “dilutions. The recovery of Salmonella typhimurium (cfu/mL) after enrichment is reported in Table 1 as the mean value of two replicates.” for “dilutions.”
# [4] = salt in enrichment media 331 micromolar, 50 g food matrix, 200 mL Demi Fraser media, inoculation 3.7 cfu/sample, mean of two replicates
# [5] = salt in enrichment media 330 micromolar, 50 g food matrix, 200 mL Demi Fraser media, inoculation 3.7 cfu/sample, mean of two replicates
compound,measurement,setting,value
"[Ba+2].[Cl-].[Cl-] [BaCl2, barium chloride]",Recovery after Enrichment,[1]; [4],1 × 10^4 cfu/mL
"[Ca+2].[Cl-].[Cl-] [CaCl2, calcium chloride]",Recovery after Enrichment,[1],1 × 10^4 cfu/mL
"O.O.O.O.O.O.O.O=S(=O)([O-])[O-].[Fe+2] [FeSO4, ferrous sulfate heptahydrate]",Recovery after Enrichment,[2]; FeSO4 50 mg/L,1 × 10^5 cfu/mL
same,Recovery after Enrichment,[2]; FeSO4 500 mg/L,1 × 10^3 cfu/mL
same,Recovery after Enrichment,[2]; FeSO4 2000 mg/L,1 × 10^3 cfu/mL
same,Recovery after Enrichment,[3]; FeSO4 50 mg/L,1 × 10^6 cfu/mL
same,Recovery after Enrichment,[3]; FeSO4 500 mg/L,1 × 10^6 cfu/mL
same,Recovery after Enrichment,[3]; FeSO4 2000 mg/L,1 × 10^7 cfu/mL
"O=S(=O)([O-])[O-].[Mg+2] [MgSO4, magnesium sulfate]",Recovery after Enrichment,"[1]; salt in enrichment media 332 micromolar, 50 g food matrix, 200 mL Demi Fraser media, inoculation 3.7 cfu/sample, mean of two replicates",1 × 10^5 cfu/mL
"[Cl-].[Cl-].[Zn+2] [ZnCl2, zinc chloride]",Recovery after Enrichment,"[1]; ZnCl2 45 mg/L, 50 g food matrix, 200 mL Demi Fraser media, inoculation 3.7 cfu/sample, 35° C. 24 hours, mean of two replicates",1 × 10^6 cfu/mL
same,Recovery after Enrichment,[1]; [5],1 × 10^6 cfu/mL
ferric ammonium citrate [Example C6H11FeNO7],Recovery after Enrichment,[1]; [5],1 × 10^4 cfu/mL
ferric citrate [Example C6H5FeO7],Recovery after Enrichment,[1]; [4],1 × 10^4 cfu/mL

# From patent publication US20210277352A1, “ENRICHMENT SUPPLEMENT FOR ANTIMICROBAL MATRICES” (priority 2018, published 2021)
